Data reported in paper PMC12068666, “Synthesis of thiazole-integrated pyrrolotriazinones: evaluations of cytotoxicity and effects on PI3K levels in cancer cells” (Turkish Journal of Chemistry, 2025).
“Also recorded” adds a separate entry of the source.

Tests used:
PI3K enzyme = details: cited from earlier work
MCF-7 cells = assay: MTT assay, antiproliferative activity, MCF-7; type: cell-based, human; details: for IC50: Homo sapiens, MCF7, MTT, 24 h treatment, mean ± SD; for Selectivity Index (SI) MCF-7: IC50 of healthy cells (NIH/3T3)/IC50 of cancer cells
Procedure: (§1) MCF-7 (human ER + breast cancer, HTB-22, USA), A549 (human nonsmall cell lung cancer, ATTC CRM-CCL-185, USA), HepG2 (human liver cancer, ATTC HB-8065, USA), and NIH/3T3 (mouse embryonic fibroblast, ATCC, CRL-1658, USA) cells were maintained in DMEM supplemented with 10% fetal bovine serum and 1% penicillin/streptomycin. The cells were maintained under appropriate conditions (37 °C, 5% CO2).
(§2) The antiproliferative activity of the newly synthesized compounds was measured using the MTT assay as described in a previous study. Briefly, cells were seeded at a density of 6 × 10^3 cells/well and incubated for 24 h in a 37 °C humidified incubator with 5% CO2. Afterwards, the cells were treated with increasing concentrations (1, 2.5, 5, 10, 25, 50, 75, and 100 μM) of compounds and incubated for another 24 h. Moreover, some cells were incubated with doxorubicin (1, 5, 10, 25, and 50 μM) for comparison, while other cells treated only with 1% DMSO was used as the solvent control. After incubation, 20 μL of MTT solution (5 mg/mL in PBS) was added to each well, and the plate was incubated for 4 h under the same conditions. Following this period, the medium was discarded and replaced with DMSO. The absorbance of dissolved formazan crystals was measured using a multiplate reader. The IC50 value and the selectivity index of each compound were calculated as previously described.
(§3) The antiproliferative effect of all newly synthesized thiazole-integrated pyrrolotriazinone derivatives were assessed against cancer cell lines (MCF-7, A549, and HepG2) as well as a healthy cell line (NIH/3T3) using the MTT assay. The IC50 values were determined through the nonlinear regression algorithm for log (inhibitor) versus normalized response-variable slope, as implemented in GraphPad [Y = 100/(1 + 10^X−LogIC50), where X represents the logarithm of the inhibitor concentration and Y denotes the response]. Additionally, Selectivity Indices (SI: IC50 of healthy cells/IC50 of cancer cells) were calculated.

PI3K [1] = assay: PI3K protein levels by ELISA in MCF-7 cells; type: cell-based, human; details: IC50 concentration, 24 h, compared to 1% DMSO control
Procedure: (§4) The protein levels of PI3K in MCF-7 and HepG2 cells were assessed using enzyme-linked immunosorbent assay (ELISA) kits. […] After the incubation period, the medium was collected, and PI3K protein levels were measured using ELISA kits according to the manufacturer’s instructions (Cat no: ELK9879, ELK Biotechnology, Denver, USA).

PI3K [2] = assay: PI3K protein levels by ELISA in HepG2 cells; type: cell-based, human; details: IC50 concentration, 24 h, compared to 1% DMSO control
Procedure: as §4

A549 cells = assay: MTT assay, antiproliferative activity, A549; type: cell-based, human; details: for IC50: Homo sapiens, A549, MTT, 24 h treatment, mean ± SD; for Selectivity Index (SI) A549: IC50 of healthy cells (NIH/3T3)/IC50 of cancer cells
Procedure: as §1, §2, §3

HepG2 cells = assay: MTT assay, antiproliferative activity, HepG2; type: cell-based, human; details: for IC50: Homo sapiens, HepG2, MTT, 24 h treatment, mean ± SD
Procedure: as §1, §2, §3

NIH/3T3 cells = assay: MTT assay, healthy cell line NIH/3T3; type: cell-based; details: Mus musculus, NIH3T3, 24 h treatment, mean ± SD
Procedure: as §1, §2, §3

| Compound | IC50 (PI3K enzyme) | IC50 (MCF-7 cells) | Selectivity Index (SI) MCF-7 (MCF-7 cells) | PI3K protein levels in MCF-7 cells (PI3K [1]) | PI3K protein levels in HepG2 cells (PI3K [2]) | IC50 (A549 cells) | Selectivity Index (SI) A549 (A549 cells) | IC50 (HepG2 cells) | Selectivity Index (SI) HepG2 (HepG2 cells; IC50 of healthy cells (NIH/3T3)/IC50 of cancer cells) | IC50 (NIH/3T3 cells) |
| --- | --- | --- | --- | --- | --- | --- | --- | --- | --- | --- |
| Cc1ccccc1-n1c(Cn2cnc3c(N)ncnc32)nn2ccc(C)c2c1=O [Compound 5] | 0.11 µM |  |  |  |  |  |  |  |  |  |
| Cc1ccn2nc(C(C)n3cnc4c(N)ncnc43)n(-c3ccccc3)c(=O)c12 (centres unmarked) [Compound 6] | 0.075 µM |  |  |  |  |  |  |  |  |  |
| O=c1n(-c2nc(-c3ccc(Cl)c(Cl)c3)cs2)ncc2cccn12 [Compound 25, 3-(4-(3,4-dichlorophenyl)thiazol-2-yl)pyrrolo[1,2-d][1,2,4]triazin-4(3H)-one] |  | 8.1 ± 0.17 µM | 13.60 | significantly reduced; also recorded: significant reduction in PI3K protein levels | markedly diminished; also recorded: significant reduction in PI3K protein levels | 38.7 ± 0.4 µM | 2.84 | 7.21 µM | 15.20 | > 100 µM |
| O=c1n(-c2nc(-c3ccc(Cl)cc3Cl)cs2)ncc2cccn12 [Compound 27, 3-(4-(2,4-dichlorophenyl)thiazol-2-yl)pyrrolo[1,2-d][1,2,4]triazin-4(3H)-one] |  | 9.23 ± 1.09 µM | 10.30 | significantly reduced; also recorded: reduced PI3K levels; also recorded: significant reduction in PI3K protein levels | markedly diminished; also recorded: reduced PI3K levels; also recorded: significant reduction in PI3K protein levels | 37.2 ± 1.15 µM | 2.83 | 6.18 ± 0.63 µM |  | > 100 µM |
| Cc1ccccc1-n1c(Cn2cnc3c(N)ncnc32)nc2cccc(C)c2c1=O [IC87114] | 0.13 µM |  |  |  |  |  |  |  |  |  |
